From patent US20240124504A1, “AROMATIC HETEROCYCLIC COMPOUND, AND PHARMACEUTICAL COMPOSITION AND APPLICATION THEREOF” (GT APEIRON THERAPEUTICS LIMITED, priority 2020, published 2024)

What was measured:
[1] = test system: human breast cancer cells HCC70; test: Cell biological activity detection (CyQuant, 72 hours), HCC70; type: cell-based; details: incubation for 72 hours
Procedure, shortened: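 IC50 derived from CyQuant Direct nuclear staining (488 nm excitation) after 72 h compound exposure at 37 °C, 5% CO2. Compounds tested in 9 concentrations from 10 μM, 1:4 steps, 0.2% DMSO, on A2780 or HCC70 cells plated overnight at 2000/well in RPMI 1640 + 10% FBS.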

CDK2/cyclinE1 complex = CDK2/cyclinE1 complex (Homo sapiens, UniProt P24941); test: In-vitro enzymatic inhibitory activity testing, CDK2 inhibition assay (Caliper EZ Reader II); type: biochemical; details: CDK2/cyclinE1 0.5 nM, 180 min at 27° C.
Procedure, shortened: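 CDK2/cyclinE1 (0.5 nM) phosphorylated 5-FAM-CDK7tide (2 μM) in MES buffer pH 6.5 with MgCl2, Tween 20 and BSA. Substrate and product were separated electrophoretically on a Caliper EZ Reader II. IC50 values came from nonlinear dose-response fits.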

[2] = Caco-2 membrane permeability and efflux rate; type: in vitro ADME; details: human, Caco-2, Caco-2, 5 μM; for Papp B→A at 2 h, 5 μM: basal end to top end; for efflux ratio at 2 h, 5 μM: read-out: ER (efflux rate); for Papp A→B at 2 h, 5 μM: top end to basal end
Description: The recovered Caco-2 cell suspension was seeded into a […] plate and cultured for 14-18 days. After being cultured for 14 days, the cells were fused and differentiated to be ready for a transport experiment. The Caco-2 cell plate was taken out from the incubator. Stock solutions of a to-be-tested compound and a control compound were formulated with DMSO and diluted with an HBSS (10 mM HEPES, pH 7.4) buffer to a final concentration of 5 μM. A test compound solution and a control drug solution were added to each well (top end) of an insert culture plate, and the HBSS (10 mM HEPES, pH 7.4) buffer was added to each well of a test compound receiving plate (basal end). When measuring the transport rate of the compound from the basal end to the top end, the test compound solution and the control drug solution were added to each well of the receiving plate (basal end), the HBSS (10 mM HEPES, pH 7.4) buffer solution was added to each well (top end) of the insert culture plate for the test compound solution, and incubation was carried out for 2 hours in a CO2 incubator at 37° C. After the transport experiment was completed, vortexing was carried out for 10 minutes at 1000 rpm. After sample quenching at each time point, LC/MS/MS analysis was carried out. A fluorescence value was measured after a two-hour transport experiment, a lucifer yellow solution was added in a transwell chamber (top end), a transport buffer solution was added in the basal end, and incubation was carried out for 30 minutes in the CO2 incubator at 37° C. The solution was taken out directly from the top end and the basal end (using basolateral wells) and transferred to a new 96-well plate. A cell fluorescence value was measured by a microplate reader (to detect membrane integrity), an excitation wavelength was […], and an emission wavelength was […]. All data were calculated by using Microsoft Excel, and a peak area was calculated according to chromatograms. An apparent permeability coefficient (Papp, unit: 10-6, cm/s) and an efflux rate (ER) of the compounds in Caco-2 cells were calculated by the specific concentrations of a receiving end and an administering end.

| IC50 (CDK2/cyclinE1 complex) [nM] | Papp B→A at 2 h, 5 μM [2] [×10⁻⁶ cm/s] | efflux ratio at 2 h, 5 μM [2] | Papp A→B at 2 h, 5 μM [2] [×10⁻⁶ cm/s] | SMILES | IC50 ([1]; Homo sapiens, HCC70, 72 h) [nM] | IC50 [1] [nM] |
| --- | --- | --- | --- | --- | --- | --- |
| 5000 to 50000 | 27.3 | 10.3 | 2.64 | CC1(C)COCC(Nc2ncc(C(F)(F)F)c(-c3c[nH]c4c(P(C)(C)=O)cccc34)n2)CN1 (single isomer, unassigned) [Compound 91, (3-(2-((3,3-dimethyl-1,4-oxazepan-6-yl)amino)-5-(trifluoromethyl)pyrimidin-4-yl)-1H-indole-7-yl)dimethylphosphine oxide] | 20 to 200 | – |
| 5000 to 50000 | 33.8 | 16 | 2.11 | CP(C)(=O)c1cccc2c(-c3nc(NC4(CO)CCOC4)ncc3C(F)(F)F)c[nH]c12 (single isomer, unassigned) [Compound 118] | < 20 | – |
| 5000 to 50000 | – | – | – | CP(C)(=O)c1cccc2c(-c3nc(NC4(CO)CCOC4)ncc3C(F)(F)F)c[nH]c12 (single isomer, unassigned) [Compound 119] | – | 20 to 200 |
| 5000 to 50000 | 32.4 | 6.76 | 4.8 | CC(O)[C@H](C)Nc1ncc(C(F)(F)F)c(-c2c[nH]c3c(P(C)(C)=O)cccc23)n1 (single isomer, unassigned) [Compound 129] | 20 to 200 | – |
| 5000 to 50000 | – | – | – | CC(O)[C@H](C)Nc1ncc(C(F)(F)F)c(-c2c[nH]c3c(P(C)(C)=O)cccc23)n1 (single isomer, unassigned) [Compound 130] | – | 20 to 200 |
| 5000 to 50000 | 32.5 | 13.3 | 2.44 | CP(C)(=O)c1cccc2c(-c3nc(NCC4CC4CO)ncc3C(F)(F)F)c[nH]c12 (single isomer, unassigned) [Compound 143] | 20 to 200 | – |
| 5000 to 50000 | – | – | – | CP(C)(=O)c1cccc2c(-c3nc(NCC4CC4CO)ncc3C(F)(F)F)c[nH]c12 (single isomer, unassigned) [Compound 144] | – | 20 to 200 |
| 200 to 5000 | 32.8 | 7.8 | 4.2 | CC(CO)CNc1ncc(C(F)(F)F)c(-c2c[nH]c3c(P(C)(C)=O)cccc23)n1 (single isomer, unassigned) [Compound 149] | < 20 | – |
| 200 to 5000 | – | – | – | CC(CO)CNc1ncc(C(F)(F)F)c(-c2c[nH]c3c(P(C)(C)=O)cccc23)n1 (single isomer, unassigned) [Compound 150] | – | < 20 |
| 200 to 5000 | 22.3 | 4.38 | 5.1 | C[C@@H](CO)Nc1ncc(C(F)(F)F)c(-c2c[nH]c3c(P(C)(C)=O)c(C#N)ccc23)n1 [Compound 79, (S)-7-(dimethylphosphoryl)-3-(2-((1-hydroxy-propan-2-yl)amino)-5-(trifluoromethyl)pyrimidin-4-yl)-1H-indole-6-carbonitrile] | 20 to 200 | – |
| 200 to 5000 | 23.6 | 3.95 | 5.32 | C[C@@H](CO)Nc1ncc(C(F)(F)F)c(-c2c[nH]c3c(P(C)(C)=O)cccc23)n1 [Compound 82, (S)-(3-(2-((1-hydroxypropyl-2-yl)amino)-5-(trifluoromethyl)pyrimidin-4-yl)-1H-indole-7-yl)dimethylphosphine oxide] | < 20 | – |
| 200 to 5000 | 32.4 | 16.3 | 1.99 | CP(C)(=O)c1cccc2c(-c3nc(N[C@H]4CC[C@H](O)C4)ncc3C(F)(F)F)c[nH]c12 [Compound 83] | < 20 | – |
| 5000 to 50000 | 21.3 | 2.77 | 7.69 | CC(C)(CO)Nc1ncc(C(F)(F)F)c(-c2c[nH]c3c(P(C)(C)=O)cccc23)n1 [Compound 85, (3-(2-((1-hydroxy-2-methylpropan-2-yl)amino)-5-(trifluoromethyl)pyrimidin-4-yl)-1H-indole-7-yl)dimethylphosphine oxide] | 20 to 200 | – |
| 200 to 5000 | 29.5 | 20.5 | 1.44 | CP(C)(=O)c1cccc2c(-c3nc(NC[C@H](F)CO)ncc3C(F)(F)F)c[nH]c12 [Compound 86, (S)-(3-(2-((2-fluoro-3-hydroxypropyl)amino)-5-(trifluoromethyl)pyrimidin-4-yl)-1H-indole-7-yl)dimethylphosphine oxide] | 20 to 200 | – |
| 200 to 5000 | 25.1 | 37.1 | 0.68 | CP(C)(=O)c1cccc2c(-c3nc(N[C@H]4COC[C@@H]4O)ncc3C(F)(F)F)c[nH]c12 [Compound 87] | < 20 | – |
| 200 to 5000 | 29.2 | 7.77 | 3.76 | CC[C@@H](CO)Nc1ncc(C(F)(F)F)c(-c2c[nH]c3c(P(C)(C)=O)cccc23)n1 [Compound 88, (S)-(3-(2-((1-hydroxybutan-2-yl)amino)-5-(trifluoromethyl)pyrimidin-4-yl)-1H-indole-7-yl)dimethylphosphine oxide] | 20 to 200 | – |
| 200 to 5000 | 30.6 | 14.3 | 2.13 | CP(C)(=O)c1cccc2c(-c3nc(NCCCO)ncc3C(F)(F)F)c[nH]c12 [Compound 89, (3-(2-((3-hydroxypropyl)amino)-5-(trifluoromethyl)pyrimidin-4-yl)-1H-indole-7-yl)dimethylphosphine oxide] | < 20 | – |
| 200 to 5000 | 27 | 7.64 | 3.53 | C[C@H](CO)Nc1ncc(C(F)(F)F)c(-c2c[nH]c3c(P(C)(C)=O)cccc23)n1 [Compound 93, (R)-(3-(2-((1-hydroxypropyl-2-yl)amino)-5-(trifluoromethyl)pyrimidin-4-yl)-1H-indole-7-yl)dimethylphosphine oxide] | < 20 | – |
| 5000 to 50000 | 31.4 | 12.5 | 2.51 | CP(C)(=O)c1cccc2c(-c3nc(NC4(CO)CC4)ncc3C(F)(F)F)c[nH]c12 [Compound 94, (3-(2-((1-(hydroxymethyl)cyclopropyl)amino)-5-(trifluoromethyl)pyrimidin-4-yl)-1H-indole-7-yl)dimethylphosphine oxide] | 20 to 200 | – |
| 5000 to 50000 | 26.1 | 14.1 | 1.86 | CP(C)(=O)c1cccc2c(-c3nc(NC4(CO)CC(F)(F)C4)ncc3C(F)(F)F)c[nH]c12 [Compound 96, (3-(2-((3,3-difluoro-1-(hydroxymethyl)cyclobutyl)amino)-5-(trifluoromethyl)pyrimidin-4-yl)-1H-indole-7-yl)dimethylphosphine oxide] | < 20 | – |
| 200 to 5000 | 32.3 | 20.8 | 1.55 | CP(C)(=O)c1cccc2c(-c3nc(NCCO)ncc3C(F)(F)F)c[nH]c12 [Compound 97, (3-(2-((2-hydroxyethyl)amino)-5-(trifluoromethyl)pyrimidin-4-yl)-1H-indole-7-yl)dimethylphosphine oxide] | 20 to 200 | – |
